Measurements reported in ChEMBL document CHEMBL6071205, “A New Frontier in Targeted Therapies: Harnessing PROTACs and Advanced Delivery Systems” (ACS Med Chem Lett, 2024).

Target: von Hippel-Lindau disease tumor suppressor/GTPase KRas (Homo sapiens, UniProt P01116+P40337, G12D)
Experiment: PROTAC activity at VHL/KRAS G12D mutant in human ASPC1 cells assessed as induction of protein degradation incubated for 24 hrs by HiBiT based Nano-Glo luminescence assay
Type: cell-based

Chain of von Hippel-Lindau disease tumor suppressor/GTPase KRas (P01116 whole entry G12D, stated change not applied): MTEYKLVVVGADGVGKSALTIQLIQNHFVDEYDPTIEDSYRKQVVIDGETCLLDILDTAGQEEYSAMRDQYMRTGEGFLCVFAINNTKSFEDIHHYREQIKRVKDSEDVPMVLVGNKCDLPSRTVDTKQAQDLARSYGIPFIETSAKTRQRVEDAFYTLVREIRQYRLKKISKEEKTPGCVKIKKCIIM
Chain of von Hippel-Lindau disease tumor suppressor/GTPase KRas (P40337 whole entry, stated change not applied): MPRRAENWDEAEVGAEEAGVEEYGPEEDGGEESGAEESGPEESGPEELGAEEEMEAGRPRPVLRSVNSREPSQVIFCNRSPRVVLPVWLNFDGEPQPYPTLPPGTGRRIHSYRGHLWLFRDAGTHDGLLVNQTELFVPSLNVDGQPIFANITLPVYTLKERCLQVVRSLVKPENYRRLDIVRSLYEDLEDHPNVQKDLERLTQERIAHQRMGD

`C#Cc1c(F)ccc2cccc(-c3ncc4c(N5CC6CCC(C5)N6)nc(OC[C@@]56CCCN5[C@H](COC(=O)N5CCC(OCCCCCCc7ccc8c(c7)n(C)c(=O)n8C7CCC(=O)NC7=O)CC5)CC6)nc4c3F)c12` (some centres not stated) and `C#Cc1c(F)ccc2cccc(-c3ncc4c(N5CC6CCC(C5)N6)nc(OC[C@@]56CCCN5[C@H](COC(=O)N5CCC(OCCCc7ccc8c(c7)n(C)c(=O)n8C7CCC(=O)NC7=O)CC5)CC6)nc4c3F)c12` (some centres not stated) cannot be ordered by DC50: at most 100 nM for the first, at most 100 nM for the second.

`C#Cc1c(F)ccc2cccc(-c3ncc4c(N5CC6CCC(C5)N6)nc(OC[C@@]56CCCN5[C@H](COC(=O)N5CCC(OC7CCN(Cc8ccc9c(c8)n(C)c(=O)n9C8CCC(=O)NC8=O)CC7)CC5)CC6)nc4c3F)c12` (some centres not stated) and `C#Cc1c(F)ccc2cccc(-c3ncc4c(N5CC6CCC(C5)N6)nc(OC[C@@]56CCCN5[C@H](COC(=O)N5CCC(OC7CN(Cc8ccc9c(c8)n(C)c(=O)n9C8CCC(=O)NC8=O)C7)CC5)CC6)nc4c3F)c12` (some centres not stated) cannot be ordered by DC50: at most 100 nM for the first, at most 100 nM for the second.

`C#Cc1c(F)ccc2cc(O)cc(-c3ncc4c(N5CC6CCC(C5)N6)nc(OC[C@@]56CCCN5[C@H](COC(=O)N5CCC(OCCCc7ccc8c(c7)n(C)c(=O)n8C7CCC(=O)NC7=O)CC5)CC6)nc4c3F)c12` (some centres not stated) and `C#Cc1c(F)ccc2cc(O)cc(-c3ncc4c(N5CC6CCC(C5)N6)nc(OC[C@@]56CCCN5[C@H](COC(=O)N5CCC(OCc7ccc8c(c7)n(C)c(=O)n8C7CCC(=O)NC7=O)CC5)CC6)nc4c3F)c12` (some centres not stated) cannot be ordered by DC50: at most 100 nM for the first, at least 100 nM for the second.

`C#Cc1c(F)ccc2cccc(-c3ncc4c(N5CC6CCC(C5)N6)nc(OC[C@@]56CCCN5[C@H](COC(=O)N5CC(CN7CCN(c8ccc9c(c8)n(C)c(=O)n9C8CCC(=O)NC8=O)CC7)C5)CC6)nc4c3F)c12` (some centres not stated) and `C#Cc1c(F)ccc2cccc(-c3ncc4c(N5CC6CCC(C5)N6)nc(OC[C@@]56CCCN5[C@H](COC(=O)N5CCC(CN7CCC(c8ccc9c(c8)n(C)c(=O)n9C8CCC(=O)NC8=O)CC7)CC5)CC6)nc4c3F)c12` (some centres not stated) cannot be ordered by DC50: at most 100 nM for the first, at most 100 nM for the second.

`C#Cc1c(F)ccc2cccc(-c3ncc4c(N5CC6CCC(C5)N6)nc(OC[C@@]56CCCN5[C@H](COC(=O)N5CCN(C7CCN(Cc8ccc9c(c8)n(C)c(=O)n9C8CCC(=O)NC8=O)CC7)CC5)CC6)nc4c3F)c12` (some centres not stated) and `C#Cc1c(F)ccc2cccc(-c3ncc4c(N5CC6CCC(C5)N6)nc(OC[C@@]56CCCN5[C@H](COC(=O)N5CCC(CC7CCN(Cc8ccc9c(c8)n(C)c(=O)n9C8CCC(=O)NC8=O)CC7)CC5)CC6)nc4c3F)c12` (some centres not stated) cannot be ordered by DC50: at most 100 nM for the first, at most 100 nM for the second.

`C#Cc1c(F)ccc2cccc(-c3ncc4c(N5CC6CCC(C5)N6)nc(OC[C@@]56CCCN5[C@H](COC(=O)N5CCC(OCCC#Cc7ccc8c(c7)n(C)c(=O)n8C7CCC(=O)NC7=O)CC5)CC6)nc4c3F)c12` (some centres not stated) and `C#Cc1c(F)ccc2cccc(-c3ncc4c(N5CC6CCC(C5)N6)nc(OC[C@@]56CCCN5[C@H](COC(=O)N5CCC7(CCC(CCc8ccc9c(c8)n(C)c(=O)n9C8CCC(=O)NC8=O)CC7)CC5)CC6)nc4c3F)c12` (some centres not stated) cannot be ordered by DC50: at most 100 nM for the first, at least 100 nM for the second.
